“Also recorded” adds a separate entry of the source.

Data set [1] deals with neutrophil serine proteases (HNE, Pr3 and CG). Description: Proteases activities and inhibition in CF sputum, overall comparison of treatments. The format is biochemical, human. Particulars: compared with pLK of higher MW (40,000-50,000 Da). As for the experimental part:
(§1) Sputum processing-CF sputum was collected into 50 ml Falcon® tubes by physiotherapy and processed immediately. Sputum was diluted with 3 volumes of PBS per gram and homogenized to obtain a crude homogenate that was kept on ice. An aliquot of each homogenate was incubated for 2 h in low-binding microtubes with 400 μg/ml DNase or with 1.5 mg/ml of poly-L-Lysine (pLK) or PEGylated pLK (PEG-g-pLK) under gentle stirring at room temperature, then layered on a glass slide for cell counting by trypan blue exclusion and visual aspect under the optical microscope. Different sizes of pLK were tested (pLK, HBr of either 500-2,000 Da, 1000-5,000 Da, 4,000-15,000 Da and 40,000-50,000 Da molecular weight). PEG-g-pLK was pLK of 40,000-50,000 Da molecular weight grafted with one mPEG molecule of 5,000 Da.
Proteases activities were measured as described in (26) with the specific FRET (fluorescence resonance energy transfer) substrates of HNE, Pr3 and CG: Abz-APEEIMRRQ-YNO2, Abz-VADnVADQ-EDDnp and Abz-TPFSGQ-YNO2 respectively (λex=320 nm and λem=420 nm). The concentrations of active proteases in biological samples were determined by comparing the rates of hydrolysis of their specific substrates with those of commercial titrated proteases under the same experimental conditions. […]

The next data set relates to control mice. Format: in vivo, mouse. The text has this: The objective of the study was to identify the nature and the dose of polycations to be aerosolized safely in control mice.
In vivo assessment of polycations toxicity has been done by cytologic analysis of bronchoalveolar lavage fluids (BALFs), quantification of proinflammatory cytokines (IL6 and KC) and lung anatomopathology.
Aerosol administration of different doses of pLK was done using a Microsprayer®. Mice were killed at day 2 and day 5 and bronchoalveolar lavage fluids (BALF) were obtained with instillation of 5×0.5 mL of sterile PBS into the lungs. Lungs were perfused with 4% formaldehyde for histological studies. Cells were collected after centrifugation of BALFs, suspended in PBS, and analyzed by flow cytometry. The supernatant was used for cytokine quantification using commercially available ELISA kits.

The next data set relates to Beas-2B cells. Description: In vitro cellular toxicity in Beas-2B cell cultures. Format: cell-based. Particulars: in vitro cultures of Beas-2B cells.
In another data set the test system is CF sputum. Description: CF sputum homogenate treatment: visual aspect and cell counting. On the set-up: species or system human. Particulars: for morphological aspect of the sputum after treatment: CF sputum homogenate, 2 h, 400 μg/ml DNase or 1.5 mg/ml pLK. As for the experimental part: as §1
The increased viscosity of mucus in the CF lung leads to lung obstruction and subsequent decrease in lung function. Because DNA is a major component of CF lung secretions that contributes to their viscosity, rhDNase has been used for long by CF patients as a liquefying expectorant (28). A possible other mean to fluidize lung secretions could be through the condensation of extracellular DNA by positively charged polymers. We checked this hypothesis using poly-L-lysine (pLK) and comparing the rheological properties of CF sputa before and after treatment by pLK. Then we compared the results with those obtained using DNase in the same conditions.

The test system of the next data set is extracellular DNA. Briefly: Quantification of extracellular DNA in CF sputum. Further details: species or system human. Particulars: for amount of extracellular DNA: CF sputum after treatment, EvaGreen. On the procedure:
as §1
Extracellular DNA is quantified with the non-cell-permeant fluorochrome EvaGreen™ dsDNA reagent (λex=488 nm and λem=520 nm).

A further data set deals with T1, HNE (Homo sapiens, UniProt P08246).
T1 construct: Aliquots of sputum homogenates containing peptidases in the 10 nanomolar range; from tissue; host or cells: sputum of cystic fibrosis patients (crude homogenate in PBS)
T1 sequence (P08246 30-247 limits assumed): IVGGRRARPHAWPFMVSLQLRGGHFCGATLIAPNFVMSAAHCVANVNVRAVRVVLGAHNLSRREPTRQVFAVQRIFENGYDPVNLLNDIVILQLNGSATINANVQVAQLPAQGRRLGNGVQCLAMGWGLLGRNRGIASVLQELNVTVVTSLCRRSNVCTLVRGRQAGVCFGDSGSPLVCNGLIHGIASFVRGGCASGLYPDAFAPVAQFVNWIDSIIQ
Description: HNE activity in whole CF sputa and its inhibition by exogenous inhibitors. The format is biochemical. Conditions: after treatment of whole CF sputum. On the procedure:
(§2) Proteases activities were measured as described in (26) with the specific FRET (fluorescence resonance energy transfer) substrates of HNE, Pr3 and CG: Abz-APEEIMRRQ-YNO2, Abz-VADnVADQ-EDDnp and Abz-TPFSGQ-YNO2 respectively (λex=320 nm and λem=420 nm). The concentrations of active proteases in biological samples were determined by comparing the rates of hydrolysis of their specific substrates with those of commercial titrated proteases under the same experimental conditions. HNE and Pr3 were titrated as described in (27) and CG was titrated with HNE-titrated recombinant human secretory leukocyte protease inhibitor.
(§3) Aliquots of sputum homogenates containing peptidases in the 10 nanomolar range, were incubated for 30 min at room temperature with increasing amounts of inhibitors up to a (I)/(E) molar ratio of about 40. The low Mr recombinant inhibitor EPI-hNE4 or α1-proteinase inhibitor (α1-Pi) were used to inhibit HNE, while α1-antichymotrypsin (ACT) was used to inhibit CG; Pr3 was inhibited with α1-Pi after samples had been incubated with a 1000-fold molar excess of EPI-hNE4 to avoid the α1-Pi interacting with HNE (8).

A further data set concerns the target T2, Pr3 (Homo sapiens, UniProt P24158).
T2 construct: Aliquots of sputum homogenates containing peptidases in the 10 nanomolar range; from tissue; host or cells: sputum of cystic fibrosis patients (crude homogenate in PBS)
T2 sequence (P24158 28-248 limits assumed): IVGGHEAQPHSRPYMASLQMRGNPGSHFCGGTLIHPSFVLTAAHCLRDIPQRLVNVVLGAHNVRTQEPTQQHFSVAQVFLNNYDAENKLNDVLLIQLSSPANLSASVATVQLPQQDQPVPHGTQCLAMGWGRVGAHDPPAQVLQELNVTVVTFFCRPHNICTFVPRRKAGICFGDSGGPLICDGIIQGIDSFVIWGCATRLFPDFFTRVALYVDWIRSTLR
Briefly: Pr3 activity in whole CF sputa and its inhibition by α1-Pi. Format: biochemical. Conditions: after treatment of whole CF sputum. As for the experimental part:
as §2, §3

For the next data set, the target named is T3, CG (Homo sapiens, UniProt P08311).
T3 construct: Aliquots of sputum homogenates containing peptidases in the 10 nanomolar range; from tissue; host or cells: sputum of cystic fibrosis patients (crude homogenate in PBS)
T3 sequence (P08311 21-243 limits assumed): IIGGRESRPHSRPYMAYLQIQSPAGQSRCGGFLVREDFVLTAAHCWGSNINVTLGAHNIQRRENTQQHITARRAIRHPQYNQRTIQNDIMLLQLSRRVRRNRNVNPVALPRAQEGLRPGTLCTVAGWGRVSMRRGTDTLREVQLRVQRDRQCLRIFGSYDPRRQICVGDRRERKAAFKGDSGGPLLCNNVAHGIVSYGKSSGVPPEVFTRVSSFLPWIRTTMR
Briefly: CG activity in whole CF sputa and its inhibition by ACT. Format: biochemical. Conditions: after treatment of whole CF sputum. On the procedure:
as §2, §3

Data set [2] deals with S. aureus (strain CIP 103811). Briefly: Antimicrobial test and scanning electron microscopy, S. aureus. Conditions: for bactericidal effect (CFU): 6×10^6 bacteria, 3 h, 150 μl PBS, 110 μg DNase or 2 μg pLK. Format: cell-based, Staphylococcus aureus. As for the experimental part: (§4) The bacterial count was determined by the measure of OD600nm.
(§5) 6×10^6 bacteria were incubated in low-binding 96-wells microplates 3 h in 150 μl PBS containing 110 μg of DNase or 2 μg of pLK (MW 40,000-50,000 Da). Aliquots of the media were then collected and serial dilutions in PBS were laid on agar plates. CFUs were numbered after incubation at 37° C. Extracellular DNA in the remaining media was quantified as previously described as a marker of bacterial wall permeability.
(§6) 6×10^6 bacteria were settled on polylysine-coated glass slides and treated (or not) with DNase or pLK (pLK of 40,000-50,000 Da). They were then fixed with 1% (v/v) glutaraldehyde and 4% (v/v) paraformaldehyde in 0.1 M PBS, pH 7.4, post-fixed in 2% (v/v) osmium tetroxide, dehydrated in a graded acetone series, dried to the critical point using carbon dioxide, and sputter coated with platinum.

Data set [3] deals with P. aeruginosa (strain PAO1). Description: Antimicrobial test and scanning electron microscopy, P. aeruginosa. The format is cell-based, Pseudomonas aeruginosa. Conditions: for bactericidal effect (CFU): 6×10^6 bacteria, 3 h, 150 μl PBS, 110 μg DNase or 2 μg pLK. As for the experimental part:
as §4, §5, §6

Setting [4] is: aerosol 2.4 mg/kg (66 μg in 50 μL, about 130 μM), Mann-Whitney test.

On to poly-L-lysine [pLK 500-2,000 Da], for which the “efficiency of pLK of different sizes” value in data set [1] is “far less efficient”.
Consider poly-L-lysine [pLK (4-15 kDa)], for which the “efficiency of pLK of different sizes” value in [1] (listed as pLK 4,000-15,000 Da) is on record as “same results as those with higher MW”. Also, in the data set on control mice (setting [4]), the “BALF cellularity, treated vs control mice” value is on record as “no significant differences”; the “cytokines quantification (IL6 and KC) in BALF, treated vs control mice” value is reported as “no significant differences”. Further, the “broncho-interstitial inflammation (histological study)” value with control mice (aerosol 2.4 mg/kg, day 2, both in treated and in control groups) is recorded as “minimal broncho-interstitial inflammation”. The “lung lesion (histological study)” value in the data set on control mice (aerosol 2.4 mg/kg, day 2 and day 5) was “no lung lesion”. Moreover, in the data set on Beas-2B cells, the cellular toxicity result is recorded as “can be observed” and the “in vitro toxicity threshold” value is 5 µM.
For the molecule poly-L-lysine [pLK], the “morphological aspect of the sputum after treatment” value in the data set on CF sputum was “fractionation of the sputum in dense aggregates and a very fluid phase”. Also, the “apparent cell count in sputum homogenate” value in the data set with CF sputum (trypan blue exclusion, neutrophils found in aggregates) is “apparent decrease”. Also, the “amount of extracellular DNA” value in the data set with extracellular DNA is “important decrease”. In addition, the “DNA degradation in treated sputum” value in the data set with extracellular DNA (extracellular content restored after addition of dextran sulfate) is reported as “not degraded”. On HNE, the “elastase activity in whole sputum” value was “dramatic increase; also recorded: increase of elastase activity” and the “inhibition of elastase activity by elastase inhibitors (α1-Pi)” value is “stoichiometrically inhibited”. For the same molecule, at Pr3, the “activity of PR3” value is listed as “Neither pLK nor DNase treatments significantly affected” and the “inhibition of PR3 by α1-Pi” value was “Neither pLK nor DNase treatments significantly affected”. Besides, at CG, the “CG inhibition by ACT” value is recorded as “significantly improved”. Moreover, the “bactericidal effect (CFU)” value in data set [2] is “significant bactericidal effect”. Also, in data set [2] (S. aureus), the “bacterial wall permeabilization (extracellular DNA, non-cell permeant fluorophore)” value is recorded as “no wall permeabilization” and the “morphology of the bacteria (scanning electron microscopy)” value (shortened to “morphology of the bacteria”) is “less marked”. Besides, the “bactericidal effect (CFU)” value in data set [3] was “significant bactericidal effect”. Further, in data set [3] (P. aeruginosa), the “bacterial wall permeabilization (extracellular DNA, non-cell permeant fluorophore)” value was “disruption of the bacterial wall” and the “morphology of the bacteria” value is “significant modification of the morphology; also recorded: spiculated surface”.

B1: DNase: DNase, most widely used mucoactive agent for CF patients; comparator (protein, UniProt P24855 23-282, looked up)
Deoxyribonuclease-1: LKIAAFNIQTFGETKMSNATLVSYIVQILSRYDIALVQEVRDSHLTAVGKLLDNLNQDAPDTYHYVVSEPLGRNSYKERYLFVYRPDQVSAVDSYYYDDGCEPCGNDTFNREPAIVRFFSRFTEVREFAIVPLHAAPGDAVAEIDALYDVYLDVQEKWGLEDVMLMGDFNAGCSYVRPSQWSSIRLWTSPTFQWLIPDSADTTATPTHCAYDRIVVAGMLLRGAVVPDSALPFNFQAAYGLSDQLAQAISDHYPVEVMLK
Regarding B1, in the data set with CF sputum, the “morphological aspect of the sputum after treatment” value is “no morphological change”. Also, the “amount of extracellular DNA” value in the data set with extracellular DNA is listed as “important decrease”. Further, in the data set with HNE, the “elastase activity in whole sputum” value was “dramatic increase; also recorded: increase of elastase activity”; the “inhibition of elastase activity by elastase inhibitors (α1-Pi)” value was “completely and stoichiometrically inhibited”. In addition, in the data set with Pr3, the “activity of PR3” value is listed as “Neither pLK nor DNase treatments significantly affected” and the “inhibition of PR3 by α1-Pi” value is “Neither pLK nor DNase treatments significantly affected”. In the data set with CG, the “CG inhibition by ACT” value is listed as “pLK, unlike DNase, significantly improved”. Further, in data set [2], the “bactericidal effect (CFU)” value was “no antimicrobial properties”. The “morphology of the bacteria” value in data set [2] (S. aureus) is given as “nor it affected the morphology”. In data set [3], the “bactericidal effect (CFU)” value is recorded as “no antimicrobial properties”. For the same molecule, in data set [3] (P. aeruginosa), the “morphology of the bacteria” value was “nor it affected the morphology”.

These data come from patent US20150174193A1, “AGENTS FOR TREATING CYSTIC FIBROSIS” (INSERM, priority 2012, published 2015).
